Laboratory results as given in patent US12522618B2, “Copper complexes for treatment of neurodegenerative disorders” (ALS Therapy Development Institute, priority 2020, dated 2026).

Assays:
[1] = system: SOD1^G93A mice; test: Disease onset (neuroscore NS2) and survival (NS4) in SOD1^G93A mice; format: in vivo, mouse; details: for Effect on disease onset / Effect on survival: male SOD1^G93A mice, 10 mg/kg or 30 mg/kg daily oral gavage, vs vehicle
Source text: The SOD1^G93A transgenic mouse model of ALS has been the most widely used animal model since the 1990s. The mouse was genetically engineered to overexpress a mutant form of the human Cu/Zn superoxide dismutase 1 (SOD1) gene harboring an ALS-associated glycine to alanine mutation at amino acid position 93 (G93A). These mice replicate many of the features of ALS, such as motor neuron loss, muscle wasting, progressive paralysis and decreased survival. Additionally, the SOD1^G93A mouse model has shown to be ideal for drug screening because of early onset of the disease and moderate progression.
The mice were treated with vehicle, 10 mg/kg or 30 mg/kg CuATSM or one of the derivatives: Compound 25 (2% DMSO, 10% KolliphorHS15), Compound 9 (0.5% methylcellulose), Compound 24 (0.5% methylcellulose, 0.4% TWEEN-80), and Compound 37 (0.5% methylcellulose, 0.4% TWEEN-80). Measurements were taken to assess compound muscle action potential (CMAP), neuroscore, and disease onset and survival.
Neuroscore is a neurological scoring system based on visual observations of the hindlimb designed to assess the neuromuscular function of SOD1^G93A mice. The hindlimb is observed due to this being the earliest reported neurological sign of disease in SOD1^G93A mice. This method provides an unbiased assessment of onset of paresis (slight or partial paralysis) and the progression and severity of the paralysis. This method has also proven to be sensitive enough to identify drug-induced changes in disease progression. Neuroscore is assigned on a 0-4 scale corresponding to the following observations: NS0=the hindlimbs present with a normal splay; NS1=hindlimbs present with an abnormal splay; NS2=the hindlimbs show signs of paresis or are partially paralyzed; NS3=rigid paralysis in the hindlimbs; NS4=the mouse is unable to right itself up. These measurements were used in the current study to assess disease onset.
The onset of disease in the SOD1^G93A mice typically happens around age day 90-100, with mice eventually succumbing to the disease around age day 120-130. For comparison, a wild-type mouse of the same background may live up to 2 years. The onset of the disease in the current study was defined as the time to observe a neuroscore of NS2 in the mouse, while a neuroscore of a NS4 was considered to be the humane end-point. Reported p-values to illustrate statistical significant represent a log-rank test.

[2] = system: SOD1^G93A mice; test: Compound muscle action potential (CMAP) in SOD1^G93A mice; format: in vivo, mouse
[3] = system: transgenic mouse models of ALS; details: transgenic mice expressing human SOD1 with familial ALS mutations; cited from earlier work
[4] = male SOD1^G93A mice, 10 mg/kg or 30 mg/kg daily, four weeks, vs vehicle

In the case of `CN/C1=N/N=C(C)/C(Cc2cccnc2)=N/N=C(/NC)[S][Cu][S]1` [Compound 9], the “Effect on disease onset” value [1] is reported as “did not significantly affect” and the Effect on survival [1] is reported as “did not significantly affect”.
In the case of `CCN/C1=N/N=C(c2ccc(CN3CCOCC3)o2)/C(C)=N/N=C(/NCC)[S][Cu][S]1` [Compound 24], the “CMAP values (change from baseline, % of baseline)” value ([2]; male SOD1^G93A mice, 10 mg/kg or 30 mg/kg daily oral gavage, five weeks, vs control) is reported as “did not significantly improve CMAP values”.
In the case of `CN/C1=N/N=C(c2ccco2)/C(C)=N/N=C(/NC)[S][Cu][S]1` [Compound 25], the “CMAP as a percentage of baseline” value ([2]; SOD1^G93A mice, 10 mg/kg or 30 mg/kg daily oral gavage, 5 weeks, vs vehicle) is reported as “significantly less change than the mice receiving vehicle”, the “CMAP change from baseline” value ([2]; SOD1^G93A mice, 10 mg/kg or 30 mg/kg daily oral gavage, five weeks, vs control) is reported as “significant change in CMAP measurements from baseline compared to control mice” and the “Survival efficacy study (onset of neurological disease, survival, body weight, neurological score)” value ([1]; litter-matched, gender-balanced SOD1^G93A mice, chronic daily 30 mg/kg, vs control) is reported as “displayed benefits”.
For `CCN/C1=N/N=C(c2ccc(CN3CCN(C)CC3)o2)/C(C)=N/N=C(/NCC)[S][Cu][S]1` [Compound 37], the CMAP decline ([2]; male SOD1^G93A mice, 10 mg/kg or 30 mg/kg daily oral gavage, four weeks) was “did not attenuate the CMAP decline”, the “Effect on disease onset” value [1] was “neither dose significantly affected” and the Effect on survival [1] was “neither dose significantly affected”.
In the case of `CN=C([S-])N/N=C(C)/C(C)=N/NC([S-])=NC.[Cu+2]` [CuATSM, reference compound], the “Protection in transgenic mouse models of ALS” value [3] is listed as “protective”, the “CMAP change from baseline” value [2, 4] is listed as “no differences” and the “percent of baseline CMAP” value [2, 4] is listed as “no differences”.
